Assay results published in patent US9625444B2, “Artificial immune system: methods of use” (Sanofi Pasteur VaxDesign Corporation, priority 2004, dated 2017).

Assays:
[1] = system: human monocytes and dendritic cells; test: in vitro chemotaxis towards chemoattractant-releasing PLGA microspheres; type: cell-based; conditions: PLGA microspheres releasing the chemoattractant
Source text: FIG. 7A is a schematic representation of the experimental design. […] FIGS. 7C and 7D show the movement of monocyte-derived DCs and monocytes, respectively, towards the vaccination site source well.
PLGA (poly(lactide-co-glycolide)) microspheres provide steady controlled release of encapsulated chemokines. […] Synthetic inverse opal hydrogel scaffolds were synthesized that support T-cell migration and interaction with B cells (FIG. 8A), and support attachment and growth of high cell densities, which is an important feature in mimicking the microenvironment of the lymph node (FIG. 8B).

[2] = system: human monocytes; conditions: known value used for comparison; cited from earlier work
[3] = system: human monocytes; test: rapid chemokine testing system (lateral motility / chemotaxis of cells); type: cell-based
Procedure: The BioAssembly Tool (BAT) has been modified for use in observations of the lateral motility of cells in experiments on chemotaxis. The described setup enables rapid screening of chemokines and cell matrices (typically, one experiment can take about half to one hour).
Three chemokines, fMLP-FITC; […], and MIP-3β, were tested with human monocytes. […] MIP-3β was found ineffective (as expected for immature monocytes); MIP-3α was found effective, despite negative information and expectations. […] Thus, fibrin matrices should be used preferably in cases when cell retention is required, and collagen should be used to make cell-permeable barriers. This latter observation may be important when considering the use of ETCs for wound healing procedures. This system can be used to further refine and optimize chemokine doses using various microparticle strategies and formulations, temporal release characteristics, and scaffold characteristics (e.g., geometry, porosity, material) on cell migration.
The rapid chemokine testing system can be used to examine saturation of cell receptors by chemokines. When a chemokine reaches its saturating concentration, cells become insensitive to the signal and stop their locomotion. In most cases, chemotaxis occurs through gradients of chemokines.

[4] = system: monocytes; test: monocyte attraction to implanted extracellular matrix scaffold; type: in vivo; conditions: mouse

Compound: CSCC[C@H](NC=O)C(=O)N[C@@H](CC(C)C)C(=O)N[C@@H](Cc1ccccc1)C(=O)O [fMLP, N-formyl-methionyl-leucyl-phenylalanine]
- movement of cells towards releasing microspheres [1]: move towards microspheres
- saturation level known [2]: ~30 nM

Compound: MIP-3α: chemokine (macrophage inflammatory protein-3) tested with human monocytes
- effectiveness of the chemokine [3]: effective

Compound: MIP-3β: macrophage inflammatory protein-3β, a 10 kDa chemoattractant chemokine
- attraction of monocytes (immunohistochemical staining) [4]: attracted
- effectiveness of the chemokine [3]: ineffective

Compound: N-formyl-methionyl-leucyl-phenylalanine-fluorescein isothiocyanate [fMLP FITC]
- saturation level [3]: ~40 nM
